Test results reported in the OPERA property sets (Mansouri et al. 2018).
Values after ≈ are worked out from the molar mass of the structure shown.

Settings: for solubility: 25 °C

Structure (SMILES) | solubility | logP
O=Cc1ccc(O)cc1 | 106 mM (≈ 12900 µg/mL) | –
O=Cc1cc(Br)ccc1Br | 0.158 mM (≈ 41.8 µg/mL) | 3.35
COc1cc(C=O)cc(OC)c1OC | – | 1.39
O=Cc1cccc(O)c1 | – | 1.29
CC(C)OC(=O)COc1ccc(C=O)cc1 | – | 1.88
O=Cc1ccc(O)c(O)c1 | – | 1.09
COc1ccc(OC)c(C=O)c1 | 4.78 mM (≈ 795 µg/mL) | 1.91
CCOc1ccc(C=O)cc1OC | – | 1.63
O=Cc1cc(O)cc(Br)c1 | 0.562 mM (≈ 113 µg/mL) | 2.5
O=Cc1cc(O)ccc1O | 99.9 mM (≈ 13800 µg/mL) | 0.54
COc1ccc(C=O)cc1OC | 38 mM (≈ 6320 µg/mL) | –
O=Cc1ccc(O)c(Br)c1 | 6.62 mM (≈ 1330 µg/mL) | 1.83
